Results from US20250064845A1, “COMPOSITION COMPRISING FLAVIN ADENINE DINUCLEOTIDE (FAD), L-GSH, ATP AND MYRISTIC ACID, ALONE OR WITH A DRUG” (BIO EVEN, priority 2023, published 2025).

How the values were obtained:
[1] = system: Pan02 transplanted pancreatic tumor; settings: Pan02 tumor-bearing mice
Protocol: Each mouse was subcutaneously treated with Pan02 cell suspension (5*10^5 cells) in the right axilla of the forelimb. […] Body weight was weighed every three days. The volume of the solid tumor was measured using a digital caliper every three days. The survival of animals was monitored and recorded daily.
• The Pan02 mouse pancreatic cancer line was purchased from Shanghai Enzyme Research Biotechnology Co., Ltd. (Shanghai, China, Cell line No.: CC-Y2144) and stored at −80° C. after arrival. The Pan02 cells were cultured in DMEM supplemented with 10% FBS (v/v), 100 U/ml penicillin G (Sigma-Aldrich, USA), and 100 μg/mL streptomycin (Sigma-Aldrich, USA). The cultures were maintained in a humidified incubator at 37° C. and 5% CO2.
• Different test drugs were administered intravenously (i.v.) and intraperitoneally (i.p.) once every other day at 10:00 am. A or B drugs were injected into the tail vein first, and 5-FU was injected intraperitoneally 24 h later.
• Each mouse was subcutaneously treated with 0.1 mL cell suspension (5*10^5 cells) in the right axilla of the forelimb. When the tumor size increases to 100 mm^3-150 mm^3, mice were randomly divided into treatment groups: the model group (n=10), the A group (n=10), the B group (n=10), the 5-FU group (1.5 mg/kg, n=10), the A+5-FU group (1.5 mg/kg, n=10), the B+5-FU group (1.5 mg/kg, n=10) (Table 1).
• Body weight was weighed every three days. The length and width of the solid tumor was measured with a digital caliper every three days. Tumor volume was calculated by the modified ellipsoidal formula: V =n/6 x (length x width2). The survival time of animals was monitored and recorded daily. […] The percent survival (%) was calculated using the following equations: percent survival (%)=[(10-numbers of mice died in each group)/10]*100%.

H22 transplanted tumor = settings: H22 tumor-bearing mice
Protocol: Body weight was weighed every three days.
• Species: Rodent; Strain: BALB/c mice; Grade: SPF; Gender: Female; Age: 5-6 weeks.
• The H22 mouse hepatoma cell line was purchased from Wuhan Procell Life Technology Co., Ltd. (Wuhan, China, Contract No.: XD-000-2022-03-30-0029) and stored at −80° C. after arrival.
Ascitic tumor fluid was then diluted with matrigel to adjust the cell concentration to 2*10^7 cells/mL.

## O=c1[nH]cc(F)c(=O)[nH]1 [Composition 5-FU, 5-fluorouracil]
[1]; 82 days, 5-FU 1.5 mg/kg
  tumor volume / antitumor effect: significantly decreased tumor volume
[1]; A or B 100 μL i.v., 5-FU 1.5 mg/kg i.p., once every other day, n=10
  mortality rate of mice on the 82nd day: 90%
[1]; A or B 100 μL i.v., 5-FU 1.5 mg/kg i.p., once every other day, test 82 days, longer survival defaulted as 82 days
  median survival time: 53.5 days
H22 transplanted tumor; 5-FU alone 2.5 mg/kg i.p. once every two days
  mortality rate of mice on the 22nd day: 30%
H22 transplanted tumor; 5-FU alone 2.5 mg/kg, longer survival defaulted as 22 days
  median survival time: 22 days
